Source: PubChem BioAssay (NCI)
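Exposure lasted 48 hours, with cells grown in 96-well plates and compounds tested at five concentrations. At the TGI there is no net growth.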

Experiments:
Experiment in all cases: growth of human tumour cells (NCI), 48 h
M19-MEL melanoma = tested on: M19-MEL melanoma
EKVX NSCLC = tested on: EKVX NSCLC
SF-539 CNS = tested on: SF-539 CNS
A498 renal = tested on: A498 renal
DMS 114 small cell lung = tested on: DMS 114 small cell lung
OVCAR-8 ovarian = tested on: OVCAR-8 ovarian
K-562 leukemia = tested on: K-562 leukemia
HCT-116 colon = tested on: HCT-116 colon
UACC-62 melanoma = tested on: UACC-62 melanoma
HCT-15 colon = tested on: HCT-15 colon
TK-10 renal = tested on: TK-10 renal
NCI-H23 lung = tested on: NCI-H23 lung
SK-MEL-28 melanoma = tested on: SK-MEL-28 melanoma
SF-268 CNS = tested on: SF-268 CNS
A549 NSCLC = tested on: A549 NSCLC
SK-MEL-5 melanoma = tested on: SK-MEL-5 melanoma
LXFL 529 NSCLC = tested on: LXFL 529 NSCLC
SNB-78 CNS = tested on: SNB-78 CNS
NCI-H226 lung = tested on: NCI-H226 lung
SNB-19 CNS = tested on: SNB-19 CNS
RPMI-8226 leukemia = tested on: RPMI-8226 leukemia
NCI-H460 lung = tested on: NCI-H460 lung
MOLT-4 leukemia = tested on: MOLT-4 leukemia
SK-MEL-2 melanoma = tested on: SK-MEL-2 melanoma
RXF 393 renal = tested on: RXF 393 renal
XF 498 CNS = tested on: XF 498 CNS
IGROV1 ovarian = tested on: IGROV1 ovarian
M14 melanoma = tested on: M14 melanoma
786-0 renal = tested on: 786-0 renal
NCI-H522 lung = tested on: NCI-H522 lung
OVCAR-5 ovarian = tested on: OVCAR-5 ovarian
OVCAR-3 ovarian = tested on: OVCAR-3 ovarian
CCRF-CEM leukemia = tested on: CCRF-CEM leukemia
UO-31 renal = tested on: UO-31 renal
SN12C renal = tested on: SN12C renal
U251 CNS = tested on: U251 CNS
OVCAR-4 ovarian = tested on: OVCAR-4 ovarian
SNB-75 CNS = tested on: SNB-75 CNS
SK-OV-3 ovarian = tested on: SK-OV-3 ovarian
DLD-1 colon = tested on: DLD-1 colon
CAKI-1 renal = tested on: CAKI-1 renal
LOX IMVI melanoma = tested on: LOX IMVI melanoma
COLO 205 colon = tested on: COLO 205 colon
ACHN renal = tested on: ACHN renal
UACC-257 melanoma = tested on: UACC-257 melanoma
KM12 colon = tested on: KM12 colon
MALME-3M melanoma = tested on: MALME-3M melanoma
HOP-92 NSCLC = tested on: HOP-92 NSCLC
DMS 273 small cell lung = tested on: DMS 273 small cell lung
HT29 colon = tested on: HT29 colon
HOP-62 NSCLC = tested on: HOP-62 NSCLC
RXF-631 renal = tested on: RXF-631 renal
SW-620 colon = tested on: SW-620 colon
HCC-2998 colon = tested on: HCC-2998 colon
HL-60(TB) leukemia = tested on: HL-60(TB) leukemia
KM20L2 colon = tested on: KM20L2 colon

Compound `Cc1cccc(NC(=O)C(=O)C(C(=O)c2ccc3ccccc3c2)C2OC(=O)c3ccccc32)c1C` (stereo unspecified) has a TGI (M19-MEL melanoma) of 21.9 µM, a TGI (EKVX NSCLC) of 77.8 µM and a TGI (SF-539 CNS) of 22.3 µM. It also gave a TGI (A498 renal) of 24.2 µM, a TGI (DMS 114 small cell lung) of 35.2 µM and a TGI (OVCAR-8 ovarian) of 71.8 µM. It also gave a TGI (K-562 leukemia) greater than 100 µM, a TGI (HCT-116 colon) of 22.2 µM and a TGI (UACC-62 melanoma) of 22.5 µM. The TGI (HCT-15 colon) was 41.9 µM, the TGI (TK-10 renal) was 50.9 µM and the TGI (NCI-H23 lung) was 59.1 µM. For the same compound, the TGI (SK-MEL-28 melanoma) was 39 µM, the TGI (SF-268 CNS) was 53.6 µM and the TGI (A549 NSCLC) was 69.2 µM. For the same compound, the TGI (SK-MEL-5 melanoma) was 25.9 µM, the TGI (LXFL 529 NSCLC) was 22.4 µM and the TGI (SNB-78 CNS) was greater than 100 µM. For the same compound, the TGI (NCI-H226 lung) was 8.74 µM, the TGI (SNB-19 CNS) was 25.4 µM and the TGI (RPMI-8226 leukemia) was 43.2 µM. It also gave a TGI (NCI-H460 lung) of 87.8 µM, a TGI (MOLT-4 leukemia) of 32.2 µM and a TGI (SK-MEL-2 melanoma) of 29.8 µM. It also gave a TGI (RXF 393 renal) of 11.6 µM, a TGI (XF 498 CNS) of 9.47 µM and a TGI (IGROV1 ovarian) of 57.7 µM. It also gave a TGI (M14 melanoma) of 33.4 µM, a TGI (786-0 renal) of 20.3 µM and a TGI (NCI-H522 lung) of 43.5 µM. It also gave a TGI (OVCAR-5 ovarian) of 54.7 µM, a TGI (OVCAR-3 ovarian) of 50.1 µM and a TGI (CCRF-CEM leukemia) of 68.8 µM. For the same compound, the TGI (UO-31 renal) was 35.7 µM, the TGI (SN12C renal) was 40.4 µM and the TGI (U251 CNS) was 23.1 µM. It also gave a TGI (OVCAR-4 ovarian) of 33.7 µM, a TGI (SNB-75 CNS) of 42.9 µM and a TGI (SK-OV-3 ovarian) of 54.4 µM. It also gave a TGI (DLD-1 colon) of 28.9 µM, a TGI (CAKI-1 renal) of 39.3 µM and a TGI (LOX IMVI melanoma) of 30.4 µM. The TGI (COLO 205 colon) was 24.7 µM, the TGI (ACHN renal) was 81.4 µM and the TGI (UACC-257 melanoma) was 35.1 µM. It also gave a TGI (KM12 colon) of 51.7 µM, a TGI (MALME-3M melanoma) of 21.7 µM and a TGI (HOP-92 NSCLC) of 36.8 µM. For the same compound, the TGI (DMS 273 small cell lung) was 39 µM, the TGI (HT29 colon) was 64.4 µM and the TGI (HOP-62 NSCLC) was 24.7 µM. The TGI (RXF-631 renal) was 29.8 µM, the TGI (SW-620 colon) was 24.2 µM and the TGI (HCC-2998 colon) was 19.5 µM. It also gave a TGI (HL-60(TB) leukemia) of 68.5 µM and a TGI (KM20L2 colon) greater than 100 µM.
